Reference: BindingDB's records for doi:10.7270/Q2RB7351 (Technical University of Gdansk, 1997)

Target: Glutamine--fructose-6-phosphate aminotransferase [isomerizing] (Candida albicans (strain SC5314 / ATCC MYA-2876), UniProt P53704)
Experiment: Enzyme Assay
Conditions: pH 6.85
Excerpt: Two assays of GlcN-6-P synthase activity were used 1)determination of GlcN-6_P formation by the modified Elson-Morgan procedure and 2) continuous quantitation of glutamate in a coupled assay with glutamate dehydrogenase in the presence of acetylpyridine adenine dinucleotide.

Glutamine--fructose-6-phosphate aminotransferase [isomerizing], sequence (P53704 whole entry): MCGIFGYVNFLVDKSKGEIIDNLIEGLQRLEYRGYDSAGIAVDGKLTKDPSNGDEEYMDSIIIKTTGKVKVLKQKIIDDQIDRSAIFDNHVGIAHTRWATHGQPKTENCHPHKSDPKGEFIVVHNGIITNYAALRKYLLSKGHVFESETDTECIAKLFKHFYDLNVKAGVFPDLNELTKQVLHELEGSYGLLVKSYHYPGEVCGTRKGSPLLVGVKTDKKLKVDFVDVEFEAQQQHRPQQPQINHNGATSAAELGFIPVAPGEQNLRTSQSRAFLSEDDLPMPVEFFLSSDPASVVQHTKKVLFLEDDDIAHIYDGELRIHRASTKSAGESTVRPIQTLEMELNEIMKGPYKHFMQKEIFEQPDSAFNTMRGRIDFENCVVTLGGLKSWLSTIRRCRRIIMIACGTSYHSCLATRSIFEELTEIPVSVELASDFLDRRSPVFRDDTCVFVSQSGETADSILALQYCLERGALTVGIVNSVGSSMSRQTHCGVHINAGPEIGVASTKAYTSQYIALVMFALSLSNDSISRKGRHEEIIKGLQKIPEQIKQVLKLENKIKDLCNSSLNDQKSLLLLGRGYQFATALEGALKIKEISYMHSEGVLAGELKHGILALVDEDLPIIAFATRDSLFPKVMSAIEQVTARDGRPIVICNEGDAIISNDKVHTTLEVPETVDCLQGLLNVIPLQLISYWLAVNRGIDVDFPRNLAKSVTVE

Compound | IC50 [mM] | Ki [mM]
N[C@@H](CCP(=O)(O)O)C(=O)O | 26 | 12
COC(=O)C(N)CCS(C)(=O)=O (racemic) [GlcN-6-P synthase inhibitor, 11 (racemic mixture)] | > 50 | –
COC(=O)C(N)CNS(C)(=O)=O (racemic) [GlcN-6-P synthase inhibitor, 12 (racemic mixture)] | > 50 | –
COC(=O)C(N)CCS(N)(=O)=O (racemic) [GlcN-6-P synthase inhibitor, 14 (racemic mixture)] | 5.5 | 2.8
CCN(CC)S(=O)(=O)CCC(N)C(=O)OC (racemic) [GlcN-6-P synthase inhibitor, 15 (racemic mixture)] | 1.6 | 0.6
COC(=O)C(N)CCP(=O)(OC)OC [GlcN-6-P synthase inhibitor, 2 (racemic mixture)] | > 50 | –
COP(=O)(CCC(N)C(=O)O)OC [GlcN-6-P synthase inhibitor, 3 (racemic mixture)] | > 50 | –
COC(=O)C(N)CCP(=O)(O)OC [GlcN-6-P synthase inhibitor, 4 (racemic mixture)] | 2.6 | 1.2
CO[P@@](=O)(O)CC[C@H](N)C(=O)O [GlcN-6-P synthase inhibitor, 5 (racemic mixture)] | 2 | 0.9
COC(=O)C(N)CCP(N)(=O)OC [GlcN-6-P synthase inhibitor, 6 (racemic mixture)] | 25 | 11
CCNP(=O)(CCC(N)C(=O)OC)OC [GlcN-6-P synthase inhibitor, 7 (racemic mixture)] | 7.8 | 4.4
COC(=O)C(N)CCP(=O)(OC)N(C)C [GlcN-6-P synthase inhibitor, 8 (racemic mixture)] | 4.4 | 1.3
CCN(CC)P(=O)(CCC(N)C(=O)OC)OC [GlcN-6-P synthase inhibitor, 9 (racemic mixture)] | 3.6 | 0.94
COC(=O)C(N)CCS(C)(=N)=O [GlcN-6-P synthase inhibitor, 13 (racemic mixture)] | 2.8 | 1.5
